From US12564635B2, “Long-lived gadolinium based tumor targeted imaging and therapy agents” (WISCONSIN ALUMNI RESEARCH FOUNDATION, priority 2015, dated 2026)

Key:
[1] = at this field strength (4.7 T); cited from earlier work
[2] = test system: orthotopic glioblastoma stem cell line 12.6; experiment: Brain tumor uptake by MRI in orthotopic glioblastoma model; assay type: in vivo, mouse
Experimental: To investigate the use of Gd-DO3A-404 to detect tumors and metastases in situ, in particular, in the brain, we created an orthotopic glioblastoma model using cancer stem cells injected into the brain. To create the model, brains of mice were injected with cells from orthotopic glioblastoma stem cell line 12.6. After sufficient tumor growth, monitored with T2-weighted MRI, we imaged subjects pre-contrast and after delivery (24-72 hours) of two different doses of Gd-DO3A-404 (2.5 or 3.7 mg; ˜0.12−0.18 mmole/kg).

[3] = In vivo biodistribution by T1-weighted SPGR MRI of the abdomen; set-up: species or system mouse; conditions: 2.5 mg intravenous
Experimental: In this example, we determined the in vivo biodistribution of the Gd-DO3A-404 after the contrast agent was administered (see Example 5). During the course of performing the experiments described in Example 4, we also acquired T1-weighted spoiled gradient (SPGR) images in the abdomen of the mice, to observe biodistribution. Abdominal cross-sections imaged included the myocardium (FIGS. 8-12, top image), the liver (FIGS. 8-12, center image), and a kidney (FIGS. 8-12, bottom image). Images are shown pre-contrast (FIG. 8), and at one hour (FIG. 9), 24 hours (FIG. 10), four days (FIG. 11) and seven days post-contrast (FIG. 12).

[4] = test system: flank U87 (human glioma) xenograft; experiment: Simultaneous PET/MR imaging of U87 flank xenograft rat; assay type: in vivo
Experimental: Simultaneous imaging was performed using a clinical Pet/MRI scanner. ^64Cu-DO3A-404 has the same structure as Gd-DO3A-404, except that ^64Cu, a positron emitting radionuclide, is chelated to the chelating moiety instead of Gd. ^64Cu-DO3A-404 was synthesized (and can be synthesized using the methods disclosed herein; see, e.g., Example 1). Both the ^64Cu-DO3A-404 and Gd-DO3A-404 chelates were injected simultaneously into a rat with a flank U87 (human glioma) xenograft.
T1-weighted scans of the U87 flank xenograft were obtained using the clinical 3.0 T PET/MR. Rats were imaged pre- and 24 hours post-administration of the Gd-DO3A-404.
Simultaneous PET/MR scans of the U87-flank bearing rat 24 hours post-simultaneous administration of both Gd-DO3A-404 (the MRI contrast agent) and ^64Cu-DO3A-404 (the PET contrast agent) were obtained.

[5] = test system: Alpha-beta crystalline overexpressing mice (triple negative breast cancer model); experiment: MRI uptake in triple-negative breast cancer model; assay type: in vivo, mouse; conditions: over 48 hours post-administration; FIG. 17
Experimental: Alpha-beta crystalline overexpressing mice (a triple negative breast cancer model) underwent MR imaging pre administration and 24 hours and 48 hours post-administration of […] (n=4).

[6] = MR relaxivity (r1, r2) at 4.7 T; assay type: physicochemical
Experimental: For initial studies, relaxivity was measured at 4.7 T. Longitudinal relaxivity, which is defined by the linear relationship between R1 relaxation rate and concentration, was measured using an inversion recovery spin echo sequence.
Higher relaxivity results in brighter signal on a T1-weighted image, and thus indicates greater T1-weighted signal enhancement potential. […]
Similarly, by plotting R2 versus concentration at five different concentrations of the Gd-DOTA-404 agent and determining the equation of the resulting line (see FIG. 3, right panel), we calculated a transverse relaxivity in plasma of 20.4 s−1/mM.

[7] = test system: orthotopic U87 xenografts; experiment: MRI uptake in orthotopic U87 xenografts; assay type: in vivo, mouse; conditions: NOD-SCID mice; 24 and 48 hours post administration; FIG. 18 left
Experimental: NOD-SCID mice with orthotopic U87 xenografts were imaged pre-administration, 24 hours, and 48 hours post administration of Gd-DO3A-404.

[8] = test system: flank A549 tumor (human non small cell lung cancer) xenograft; experiment: In vivo MRI of flank A549 xenograft mice; set-up: species or system mouse
Experimental: For proof-of-concept in vivo imaging of tumor uptake of the Gd-DO3A-404 agent, nude athymic mouse with a flank A549 tumor (non small cell lung cancer) xenograft was scanned. […] Mice were anesthetized and scanning performed prior to contrast administration and at 1, 4, 24, 48, and 72 hours following contrast delivery. Imaging was performed on a 4.7 T Varian preclinical MRI scanner with a volume quadrature coil. T1-weighted images were acquired at all imaging time points using a fast spin echo scan with the following pulse sequence parameters: repetition time (TR)=206 ms, echo spacing=9 ms, echo train length=2, effective echo time (TE)=9 ms, 10 averages, with a 40×40 mm^2 field of view, 192×192 matrix, 10 slices of thickness lmm each.

[9] = Free Gd concentration by CHELEX solid phase extraction and ICP-MS; assay type: physicochemical; conditions: CHELEX solid phase extraction, magnetic sector ICP-MS
From the text: After considering other alternatives, we decided to determine free Gd concentration by selective chelation and separation of the free Gd. We separated the Gd-DO3A-404 complex from free Gd (III) ion by CHELEX® solid phase extraction (as described by Raju, et al., J. Anal. At. Spectrom. 25 (2010), 1573-1580). Specifically, using a CHELEX® solid phase extraction column comprising an immobilized ligand (iminodiacetate) with very high affinity for free ion species of multi-valent transition and rare-earth metals, Gd was retained and then eluted using a known ratio of chelated Gd-DO3A-404 and acid-digested Gd-DO3A-404. The sample was the analyzed by magnetic sector ICP-MS to determine the concentration of free Gd.

[10] = test system: flank U87 (human glioma) tumor; experiment: In vivo MRI of flank U87 xenograft mice
Experimental: To test uptake and retention in rodent models of human cancer, flank xenografts were established in mice for two distinct tumor types, A549 (human non small cell lung cancer, NSCLC) and U87 (human glioma). N=3 for each model. For pre-contrast imaging, T1-W images of the tumor and abdomen (FIG. 4; 2 leftmost images) and T1 maps of the tumor were obtained.
At time zero (“contrast”), 2.5 mg of Gd-DO3A-404 (˜12 mmol/kg body mass) was delivered into the mice by intravenous injection. Animals were scanned pre-contrast and at various time points between one hour and seven days post-contrast (after one hour, 24 hours, 48 hours, three days, four days and seven days). T1 maps of the tumor were acquired for each time point, along with T1-weighted images of the tumor and the abdomen (see FIGS. 4 and 5).
We the quantified the tumor to muscle ratio and compare it to baseline scans.

A549 flank tumor = experiment: Tissue biodistribution by SF-ICPMS in A549-flank bearing mice; assay type: in vivo, mouse; conditions: 72 hours after administration; FIG. 16
Experimental: In this extension of Example 6, we further examined the in vivo biodistribution of Gd-DO3A-404 after it is administered. Specifically, tissue biodistribution was measured in A549-flank bearing mice 72 hours after administration of Gd-DO3A-404. Nude athymic mice were sacrificed, perfused and tissues were collected and quantitated for Gd by high-resolution (magnetic-sector) inductively-coupled plasma mass spectrometry (SF-ICPMS). n=3 mice.

[11] = test system: Orthotopic GSC 115 (human glioma stem cell model); experiment: MRI uptake in orthotopic GSC 115 model; assay type: in vivo; conditions: 24 hours post administration; FIG. 18 right
Experimental: Orthotopic GSC 115 was imaged at 24 hours post administration of Gd-DO3A-404. GSC is a human glioma stem cell model which was isolated from a human glioma patient.

CNC[C@H](O)[C@@H](O)[C@H](O)[C@H](O)CO.O=C([O-])CN1CCN(CC(=O)[O-])CCN(CC(=O)O)CCN(CC(=O)[O-])CC1.[Gd+3] [DOTAREM®]
relaxivities of clinical T1 shortening contrast agents [1]: 2 to 3 s⁻¹ mM⁻¹

C[N+](C)(C)CCOP(=O)([O-])OCCCCCCCCCCCCCCCCCCc1ccc(NC(=O)CN2CCN(CC(=O)[O-])CCN(CC(=O)[O-])CCN(CC(=O)[O-])CC2)cc1.[Gd+3] [Gd-DO3A-404]
brain tumor uptake ([2]; increased dose 3.7 mg, FIG. 15 bottom panel): uptake in one subject | brain tumor uptake ([2]; lower dose 2.5 mg, FIG. 15 upper panel): no brain uptake was observed | P-kinetic profile [3]: including hepatobiliary excretion, that is similar to that of related alkylphosphocholine analogs | circulation in the myocardium and blood pool ([3]; FIGS. 8-12): circulates for nearly up to a day | clearance from liver and kidney ([3]; up to seven days, FIGS. 8-12): substantially cleared over time, with more rapid clearance occurring through the liver, and more prolonged clearance occurring through the kidney | tumor uptake by T1-weighted MR (clinical 3.0 T PET/MR) ([4]; 24 hours post-administration, FIG. 19): selective tumor uptake | tumor enhancement in MRI images (simultaneous PET/MR) ([4]; 24 hours post-simultaneous administration, FIG. 20): enhanced enhances in both the T1 and T2 MRI images | uptake in breast cancer tissue by MRI [5]: taken up by and localized to the breast cancer tissue | Longitudinal relaxivity (r1) ([6]; in excipient): 5.84 s⁻¹ mM⁻¹ | Longitudinal relaxivity (r1) ([6]; in plasma): 5.74 s⁻¹ mM⁻¹ | Longitudinal relaxivity (r1) ([6]; in saline): 5.68 s⁻¹ mM⁻¹ | tumor uptake by T1-weighted MRI [7]: differentially taken up by the tumor tissue | tumor to muscle T1-weighted signal ratio following delivery ([8]; 2.5 mg intravenous, A549, versus pre-contrast, FIG. 6): approximately doubled | time of maximum tumor uptake ([8]; 2.5 mg intravenous, NSCLC model, FIG. 4): 24-48 hours post-contrast | duration of tumor uptake ([8]; 2.5 mg intravenous, NSCLC model, FIG. 5): maintained over several days | MRI imaging of the tumor (T1-weighted enhancement) ([8]; 2.7 mg via tail vein injection, scans 1-72 hours, FIG. 2): significantly enhanced by 24 hours post-injection | tumor R1 relaxation rate ([8]; A549, 48 hours post-contrast versus pre-contrast, FIG. 7): significantly increased | free Gd concentration [9]: 0.081% | tumor to muscle T1-weighted signal ratio following delivery ([10]; 2.5 mg intravenous, U87, versus pre-contrast, FIG. 6): approximately doubled | onset of tumor uptake ([10]; 2.5 mg intravenous, U87 model, FIG. 4): already observable at one hour after delivery | level and duration of tumor uptake compared with NSCLC model ([10]; 2.5 mg intravenous, U87 model, FIG. 5): appeared to reach higher levels and was maintained for a longer time period | tumor R1 relaxation rate ([10]; U87, 48 hours post-contrast versus pre-contrast, FIG. 7): significantly increased | tissue biodistribution (Gd by SF-ICPMS) (A549 flank tumor): selectively taken up by tumor tissue | tumor uptake by T1-weighted MRI [11]: differentially taken up by the tumor tumor tissue
